US4808616A, “6-substituted androsta-1,4-diene-3,17-diones” (Farmitalia Carlo Erba S.r.l., priority 1985, dated 1989)

Key:
rat ovarian aromatase = assay: Inhibition of rat ovarian aromatase in vivo (PMSG-treated adult female rats, oral)
[1] = women; cited from earlier work
[2] = biological target: T1, human placental aromatase (Homo sapiens, UniProt P11511); assay: Inhibition of human placental aromatase in vitro; format: biochemical
T1 construct: isolated from the microsomal fraction of human placental tissue; from tissue; host or cells: human placenta, microsomal fraction
T1 sequence (P11511 1-503): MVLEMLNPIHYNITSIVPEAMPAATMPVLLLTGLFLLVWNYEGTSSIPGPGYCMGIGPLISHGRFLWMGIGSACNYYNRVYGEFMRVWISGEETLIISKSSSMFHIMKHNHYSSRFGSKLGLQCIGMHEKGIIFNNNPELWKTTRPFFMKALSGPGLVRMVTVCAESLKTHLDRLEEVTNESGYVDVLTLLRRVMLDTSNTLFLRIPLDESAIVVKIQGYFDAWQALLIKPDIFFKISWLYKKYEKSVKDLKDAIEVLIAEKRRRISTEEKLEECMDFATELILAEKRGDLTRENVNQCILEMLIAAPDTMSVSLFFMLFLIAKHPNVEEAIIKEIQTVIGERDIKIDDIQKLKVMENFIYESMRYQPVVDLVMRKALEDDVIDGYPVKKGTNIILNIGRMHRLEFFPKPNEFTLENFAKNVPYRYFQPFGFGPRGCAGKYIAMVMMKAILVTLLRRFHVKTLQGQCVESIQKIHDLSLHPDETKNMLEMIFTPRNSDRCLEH

[3] = 30 mg/kg p.o., rats, ovaries taken 24 hrs later

## C[C@]12CCC(=O)C(O)=C1CC[C@@H]1[C@@H]2CC[C@]2(C)C(=O)CC[C@@H]12 [4-hydroxy-androst-4-ene-3,17-dione]
Rat ovarian aromatase; [3]
  % Aromatase inhibition at 30 mg/kg p.o. (result in words): inactive
Rat ovarian aromatase; administered in vivo by oral route
  effectiveness in vivo by oral route (in words): ineffective
[1]
  conjugation after oral administration: extensively conjugated after oral administration

## C=C1C[C@@H]2[C@H](CC[C@]3(C)C(=O)CC[C@@H]23)[C@@]2(C)CCC(=O)C=C12 [6-methylenandrost-4-ene-3,17-dione, reference compound]
Rat ovarian aromatase; [3]
  % Aromatase inhibition at 30 mg/kg p.o. (result in words): inactive

## C[C@]12C=CC(=O)C=C1CC[C@@H]1[C@@H]2CC[C@]2(C)C(=O)CC[C@@H]12 [androsta-1,4-diene-3,17-dione]
Rat ovarian aromatase; [3]
  % Aromatase inhibition at 30 mg/kg p.o.: 37%

## C[C@]12C=CC(=O)C=C1CC[C@@H]1[C@@H]2CC[C@]2(C)OC(=O)CC[C@@H]12 [Δ^1 -testololactone, reference compound]
[2]
  Relative potency: 0.005
Rat ovarian aromatase; [3]
  % Aromatase inhibition at 30 mg/kg p.o. (result in words): inactive
